Test results reported in US4797280A, “Antibiotics produced by Kibdelosporangium aridum Shearer gen. nov., sp. nov. ATCC 39323” (SmithKline Beckman Corporation, priority 1986, dated 1989).

Experiments:
Kibdelosporangium aridum = test: Susceptibility of K. aridum to antibiotics, disk diffusion; type: cell-based; details: 28° C., one week
Method: Susceptibility of K. aridum to antibiotics was examined by placing BBL susceptibility disks on nutrient agar plates seeded with K. aridum as an overlay. Diameters of the zones of inhibition were measured after incubation for one week at 28° C.
Susceptibility to Antibiotics. […] Chlortetracycline ([…]) produced 18 mm zones of inhibition; tetracycline (5 μg) 11-12 mm zones; rifampin (5 μg) 11-15 mm zones; novobiocin (5 μg) 27-28 mm zones. All zones of inhibition contained at least a few resistant colonies.

[1] = system: rumen fluid from dairy cows; test: Rumen in vitro experiment with dairy cow rumen fluid; details: about 23 hours
Method: A similar experiment was carried out using rumen fluid from dairy cows fed a typical dairy cow diet of two parts corn silage and three parts dairy concentrate. Specifically, strained rumen fluid (10 ml) was obtained, from an animal fed two hours earlier, via cannula and was mixed with 10 ml of a nutrient broth comprising a 2:3 mix of corn silage and dairy concentrate. After adding a selected growth promotant, the mixture was incubated at 39° C. for about 23 hours, with oscillation.

rumen inoculum = test: Rumen in vitro model; set-up: species or system steer

Compound: [H]/N=C(/N)N[C@H]1[C@H](O)[C@@H](O)[C@H](O[C@@H]2O[C@@H](C)[C@](O)(C=O)[C@H]2O[C@@H]2O[C@@H](CO)[C@H](O)[C@@H](O)[C@@H]2NC)[C@@H](N/C(N)=N\[H])[C@@H]1O [streptomycin]
- Susceptibility of K. aridum (Kibdelosporangium aridum; disk 10 μg): resistant

Compound: gentamicin
- Susceptibility of K. aridum (Kibdelosporangium aridum; disk 10 μg): resistant

Compound: Saloinomycin
- % PR ([1]; 0.5 ppm): 126% OF CONTROL
- ACE ([1]; 0.5 ppm): 95% OF CONTROL
- AMO ([1]; 0.5 ppm): 117% OF CONTROL
- BUT ([1]; 0.5 ppm): 83% OF CONTROL
- DLAC ([1]; 0.5 ppm): 0% OF CONTROL
- ETOH ([1]; 0.5 ppm): 0% OF CONTROL
- GLU ([1]; 0.5 ppm): 0% OF CONTROL
- IBU ([1]; 0.5 ppm): 153% OF CONTROL
- IVA ([1]; 0.5 ppm): 110% OF CONTROL
- LLAC ([1]; 0.5 ppm): 0% OF CONTROL
- LYS ([1]; 0.5 ppm): 119% OF CONTROL
- NH--N ([1]; 0.5 ppm): 136% OF CONTROL
- PRO ([1]; 0.5 ppm): 124% OF CONTROL
- TOTAL ([1]; 0.5 ppm): 99% OF CONTROL
- VAL ([1]; 0.5 ppm): 94% OF CONTROL
- % PR ([1]; 5 ppm): 152% OF CONTROL
- ACE ([1]; 5 ppm): 99% OF CONTROL
- AMO ([1]; 5 ppm): 226% OF CONTROL
- BUT ([1]; 5 ppm): 66% OF CONTROL
- DLAC ([1]; 5 ppm): 0% OF CONTROL
- ETOH ([1]; 5 ppm): 0% OF CONTROL
- GLU ([1]; 5 ppm): 0% OF CONTROL
- IBU ([1]; 5 ppm): 108% OF CONTROL
- IVA ([1]; 5 ppm): 75% OF CONTROL
- LLAC ([1]; 5 ppm): 0% OF CONTROL
- LYS ([1]; 5 ppm): 117% OF CONTROL
- NH--N ([1]; 5 ppm): 116% OF CONTROL
- PRO ([1]; 5 ppm): 148% OF CONTROL
- TOTAL ([1]; 5 ppm): 98% OF CONTROL
- VAL ([1]; 5 ppm): 83% OF CONTROL
- % PR ([1]; 50 ppm): 188% OF CONTROL
- ACE ([1]; 50 ppm): 76% OF CONTROL
- AMO ([1]; 50 ppm): 268% OF CONTROL
- BUT ([1]; 50 ppm): 63% OF CONTROL
- DLAC ([1]; 50 ppm): 0% OF CONTROL
- ETOH ([1]; 50 ppm): 0% OF CONTROL
- GLU ([1]; 50 ppm): 0% OF CONTROL
- IBU ([1]; 50 ppm): 61% OF CONTROL
- IVA ([1]; 50 ppm): 46% OF CONTROL
- LLAC ([1]; 50 ppm): 0% OF CONTROL
- LYS ([1]; 50 ppm): 114% OF CONTROL
- NH--N ([1]; 50 ppm): 82% OF CONTROL
- PRO ([1]; 50 ppm): 168% OF CONTROL
- TOTAL ([1]; 50 ppm): 89% OF CONTROL
- VAL ([1]; 50 ppm): 60% OF CONTROL

Compound: CC[C@@]1([C@H]2O[C@H]([C@H]3O[C@@](O)(CO)[C@H](C)C[C@@H]3C)C[C@H]2C)CC[C@H]([C@@]2(C)CC[C@]3(C[C@H](O)[C@@H](C)[C@@H]([C@H](C)[C@H](OC)[C@@H](C)C(=O)O)O3)O2)O1 [Monensin Sodium]
- % PR (rumen inoculum; 0.5 ppm): 119% OF CONTROL
- ACE (rumen inoculum; 0.5 ppm): 78% OF CONTROL
- AMO (rumen inoculum; 0.5 ppm): 0% OF CONTROL
- BUT (rumen inoculum; 0.5 ppm): 100% OF CONTROL
- DLAC (rumen inoculum; 0.5 ppm): 0% OF CONTROL
- ETOH (rumen inoculum; 0.5 ppm): 0% OF CONTROL
- IBU (rumen inoculum; 0.5 ppm): 138% OF CONTROL
- IVA (rumen inoculum; 0.5 ppm): 219% OF CONTROL
- LLAC (rumen inoculum; 0.5 ppm): 0% OF CONTROL
- PRO (rumen inoculum; 0.5 ppm): 112% OF CONTROL
- TOTAL (rumen inoculum; 0.5 ppm): 94% OF CONTROL
- UREA (rumen inoculum; 0.5 ppm): 0% OF CONTROL
- VAL (rumen inoculum; 0.5 ppm): 101% OF CONTROL
- VFA (rumen inoculum; 0.5 ppm): 94 % Control
- % PR (rumen inoculum; 5 ppm): 149% OF CONTROL
- ACE (rumen inoculum; 5 ppm): 74% OF CONTROL
- AMO (rumen inoculum; 5 ppm): 0% OF CONTROL
- BUT (rumen inoculum; 5 ppm): 93% OF CONTROL
- DLAC (rumen inoculum; 5 ppm): 0% OF CONTROL
- ETOH (rumen inoculum; 5 ppm): 0% OF CONTROL
- IVA (rumen inoculum; 5 ppm): 265% OF CONTROL
- LLAC (rumen inoculum; 5 ppm): 178% OF CONTROL
- PRO (rumen inoculum; 5 ppm): 154% OF CONTROL
- TOTAL (rumen inoculum; 5 ppm): 104% OF CONTROL
- UREA (rumen inoculum; 5 ppm): 0% OF CONTROL
- VAL (rumen inoculum; 5 ppm): 99% OF CONTROL
- VFA (rumen inoculum; 5 ppm): 104 % Control
- % PR (rumen inoculum; 50 ppm): 156% OF CONTROL
- ACE (rumen inoculum; 50 ppm): 73% OF CONTROL
- AMO (rumen inoculum; 50 ppm): 0% OF CONTROL
- BUT (rumen inoculum; 50 ppm): 98% OF CONTROL
- DLAC (rumen inoculum; 50 ppm): 0% OF CONTROL
- ETOH (rumen inoculum; 50 ppm): 0% OF CONTROL
- IBU (rumen inoculum; 50 ppm): 196% OF CONTROL
- IVA (rumen inoculum; 50 ppm): 278% OF CONTROL
- LLAC (rumen inoculum; 50 ppm): 999% OF CONTROL
- PRO (rumen inoculum; 50 ppm): 171% OF CONTROL
- UREA (rumen inoculum; 50 ppm): 0% OF CONTROL
- VAL (rumen inoculum; 50 ppm): 107% OF CONTROL
- % PR ([1]; 0.5 ppm): 117% OF CONTROL
- ACE ([1]; 0.5 ppm): 100% OF CONTROL
- AMO ([1]; 0.5 ppm): 115% OF CONTROL
- BUT ([1]; 0.5 ppm): 94% OF CONTROL
- DLAC ([1]; 0.5 ppm): 0% OF CONTROL
- ETOH ([1]; 0.5 ppm): 0% OF CONTROL
- GLU ([1]; 0.5 ppm): 0% OF CONTROL
- IBU ([1]; 0.5 ppm): 104% OF CONTROL
- IVA ([1]; 0.5 ppm): 114% OF CONTROL
- LLAC ([1]; 0.5 ppm): 0% OF CONTROL
- LYS ([1]; 0.5 ppm): 96% OF CONTROL
- NH--N ([1]; 0.5 ppm): 137% OF CONTROL
- PRO ([1]; 0.5 ppm): 122% OF CONTROL
- TOTAL ([1]; 0.5 ppm): 104% OF CONTROL
- VAL ([1]; 0.5 ppm): 105% OF CONTROL
- % PR ([1]; 5 ppm): 146% OF CONTROL
- ACE ([1]; 5 ppm): 102% OF CONTROL
- AMO ([1]; 5 ppm): 238% OF CONTROL
- BUT ([1]; 5 ppm): 71% OF CONTROL
- DLAC ([1]; 5 ppm): 0% OF CONTROL
- ETOH ([1]; 5 ppm): 0% OF CONTROL
- GLU ([1]; 5 ppm): 0% OF CONTROL
- IBU ([1]; 5 ppm): 91% OF CONTROL
- IVA ([1]; 5 ppm): 75% OF CONTROL
- LLAC ([1]; 5 ppm): 0% OF CONTROL
- LYS ([1]; 5 ppm): 95% OF CONTROL
- NH--N ([1]; 5 ppm): 105% OF CONTROL
- PRO ([1]; 5 ppm): 145% OF CONTROL
- TOTAL ([1]; 5 ppm): 99% OF CONTROL
- VAL ([1]; 5 ppm): 81% OF CONTROL
- % PR ([1]; 50 ppm): 185% OF CONTROL
- ACE ([1]; 50 ppm): 76% OF CONTROL
- AMO ([1]; 50 ppm): 274% OF CONTROL
- BUT ([1]; 50 ppm): 59% OF CONTROL
- DLAC ([1]; 50 ppm): 0% OF CONTROL
- ETOH ([1]; 50 ppm): 0% OF CONTROL
- GLU ([1]; 50 ppm): 0% OF CONTROL
- IBU ([1]; 50 ppm): 55% OF CONTROL
- IVA ([1]; 50 ppm): 45% OF CONTROL
- LLAC ([1]; 50 ppm): 0% OF CONTROL
- LYS ([1]; 50 ppm): 120% OF CONTROL
- NH--N ([1]; 50 ppm): 84% OF CONTROL
- PRO ([1]; 50 ppm): 159% OF CONTROL
- TOTAL ([1]; 50 ppm): 86% OF CONTROL
- VAL ([1]; 50 ppm): 58% OF CONTROL

Compound: CCC[C@@H]1C[C@@H](C(=O)N[C@@H]([C@H]2O[C@H](SC)[C@H](O)[C@@H](O)[C@H]2O)[C@@H](C)O)N(C)C1 [lincomycin]
- Susceptibility of K. aridum (Kibdelosporangium aridum; disk 2 μg): resistant

Compound: Avoparcin
- % PR ([1]; 0.5 ppm): 101% OF CONTROL
- ACE ([1]; 0.5 ppm): 100% OF CONTROL
- AMO ([1]; 0.5 ppm): 79% OF CONTROL
- BUT ([1]; 0.5 ppm): 100% OF CONTROL
- DLAC ([1]; 0.5 ppm): 0% OF CONTROL
- ETOH ([1]; 0.5 ppm): 0% OF CONTROL
- GLU ([1]; 0.5 ppm): 0% OF CONTROL
- IBU ([1]; 0.5 ppm): 122% OF CONTROL
- IVA ([1]; 0.5 ppm): 101% OF CONTROL
- LLAC ([1]; 0.5 ppm): 0% OF CONTROL
- LYS ([1]; 0.5 ppm): 91% OF CONTROL
- NH--N ([1]; 0.5 ppm): 92% OF CONTROL
- PRO ([1]; 0.5 ppm): 102% OF CONTROL
- TOTAL ([1]; 0.5 ppm): 1200% OF CONTROL
- VAL ([1]; 0.5 ppm): 97% OF CONTROL
- % PR ([1]; 5 ppm): 113% OF CONTROL
- ACE ([1]; 5 ppm): 94% OF CONTROL
- AMO ([1]; 5 ppm): 107% OF CONTROL
- BUT ([1]; 5 ppm): 91% OF CONTROL
- DLAC ([1]; 5 ppm): 0% OF CONTROL
- ETOH ([1]; 5 ppm): 0% OF CONTROL
- GLU ([1]; 5 ppm): 0% OF CONTROL
- IBU ([1]; 5 ppm): 146% OF CONTROL
- IVA ([1]; 5 ppm): 115% OF CONTROL
- LLAC ([1]; 5 ppm): 0% OF CONTROL
- LYS ([1]; 5 ppm): 92% OF CONTROL
- NH--N ([1]; 5 ppm): 122% OF CONTROL
- PRO ([1]; 5 ppm): 112% OF CONTROL
- TOTAL ([1]; 5 ppm): 99% OF CONTROL
- VAL ([1]; 5 ppm): 103% OF CONTROL
- % PR ([1]; 50 ppm): 128% OF CONTROL
- ACE ([1]; 50 ppm): 108% OF CONTROL
- AMO ([1]; 50 ppm): 123% OF CONTROL
- BUT ([1]; 50 ppm): 88% OF CONTROL
- DLAC ([1]; 50 ppm): 0% OF CONTROL
- ETOH ([1]; 50 ppm): 0% OF CONTROL
- GLU ([1]; 50 ppm): 0% OF CONTROL
- IBU ([1]; 50 ppm): 116% OF CONTROL
- IVA ([1]; 50 ppm): 104% OF CONTROL
- LLAC ([1]; 50 ppm): 0% OF CONTROL
- LYS ([1]; 50 ppm): 88% OF CONTROL
- NH--N ([1]; 50 ppm): 148% OF CONTROL
- PRO ([1]; 50 ppm): 137% OF CONTROL
- TOTAL ([1]; 50 ppm): 107% OF CONTROL
- VAL ([1]; 50 ppm): 99% OF CONTROL
